Activity calls are given as the source filed them. The rule behind the calls is not given here.
Tests used:
[1] = target: T1, High affinity choline transporter 1 (Homo sapiens, UniProt Q9GZV3); test: human choline transporter blockers, potency – cell-based, 5-point CRC, membrane potential dye, dose response (AID 504840); assay type: functional
T1 sequence (Q9GZV3 whole entry): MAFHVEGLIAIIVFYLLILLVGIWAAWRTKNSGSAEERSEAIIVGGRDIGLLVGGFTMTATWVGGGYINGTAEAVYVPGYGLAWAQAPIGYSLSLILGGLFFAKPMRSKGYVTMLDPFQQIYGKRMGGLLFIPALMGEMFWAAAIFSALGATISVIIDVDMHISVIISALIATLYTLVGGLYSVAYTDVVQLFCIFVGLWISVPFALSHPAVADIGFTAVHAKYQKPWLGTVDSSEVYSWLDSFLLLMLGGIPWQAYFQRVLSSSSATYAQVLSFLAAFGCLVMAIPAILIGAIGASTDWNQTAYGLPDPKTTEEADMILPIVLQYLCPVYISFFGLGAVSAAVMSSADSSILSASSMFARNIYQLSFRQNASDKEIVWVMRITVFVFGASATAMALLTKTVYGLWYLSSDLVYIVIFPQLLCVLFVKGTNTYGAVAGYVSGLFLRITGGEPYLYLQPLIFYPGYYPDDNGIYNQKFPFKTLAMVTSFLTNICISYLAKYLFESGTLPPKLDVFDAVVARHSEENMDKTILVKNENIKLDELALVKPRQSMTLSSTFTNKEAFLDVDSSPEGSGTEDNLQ

[2] = target: T1, High affinity choline transporter 1; test: human choline transporter blockers, potency – cell-based, 10-point CRC, membrane potential dye, dose response (AID 588401); assay type: functional;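 note: membrane potential dye fluorescence of choline-evoked depolarization via CHT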

IC50 [1]: 4.77 µM (active)
IC50 [2]: 3.98 µM (active)
SMILES: CC1=NOC(=O)/C1=C/c1ccc(O)c(Br)c1
